Experimental data: article PMC4393083, “Antiviral Activity and Possible Mechanism of Action of Constituents Identified in Paeonia lactiflora Root toward Human Rhinoviruses” (PLoS ONE, 2015)

Experiments:
[1] = tested on: sICAM-1; assay: Soluble ICAM-1 ELISA in MRC5 culture supernatants; assay type: cell-based, human; details: HRV-2 or HRV-4 infected MRC5 cultures, 100 μg/mL PA, 20 μg/mL PGG
Protocol: (§1) The expressions of ICAM-1 and LDLR were examined using real-time qRT-PCR and Western blot. Furthermore, concentrations of soluble ICAM-1 (sICAM-1) in cell-free culture supernatants 2 days after treatment were measured using a sICAM-1 ELISA Kit (Pierce Biotechnology, Rockford, IL) according to the manufacturer’s instructions. The sensitivities of the assays were 0.3 ng/mL. The concentrations of ICAM-1 in the test samples were determined from OD values using standard curve of each assay.

[2] = tested on: IL-6; assay: IL-6 mRNA expression, qRT-PCR in MRC5; assay type: cell-based, human; details: MRC5, 2 days after HRV-2 or HRV-4 infection; 100 μg/mL PA, 20 μg/mL PGG
Protocol: (§2) To evaluate the level of gene expression, real-time qRT-PCR with SYBR Green dye was carried out. HRV-2 or HRV-4 infected and noninfected cultures of MRC5 monolayers grown in 25 cm^2 cell culture flasks (Corning, NY) were treated with 100 μg/mL PA or 20 μg/mL PGG. After incubation at 37°C and 5% CO2 for 2 days, total RNA was extracted from the culture cells using the RNeasy Plus Mini Kit (Qiagen, Hilden, Germany) according to the manufacturer’s instructions. Contaminated genomic DNA was removed using RQ1 RNase-free DNase (Promega, Madison, WI). Complementary DNA (cDNA) was synthesized using 1 μg total RNA through a reverse transcription reaction using the SuperScript First-Strand Synthesis Kit (Invitrogen, Carlsbad, CA). […] The PCR conditions were as follows: 50°C for 2 min, 95°C for 10 min, and then 50 cycles of 95°C for 15 s and either 60°C [β2-microglobulin (B2M), interleukin (IL)-6, IL-8, LDLR, ICAM-1, HRV-2, and HRV-4] or 58°C (B2M and IL-1β) or 55°C [B2M, Toll-like receptor 3 (TLR3), tumor necrosis factor (TNF), and interferon beta (IFNβ)] for 30 s. mRNA expression level of target gene was normalized to mRNA expression level for the housekeeping gene B2M and analyzed by the 2^–ΔΔCT method using StepOne Software v2.1 and DataAssist Software (Applied Biosystems). […]

[3] = tested on: HRV-2; assay: Real-time qRT-PCR of HRV-2 RNA replication in MRC5 cells; assay type: cell-based, human rhinovirus; details: MRC5, 2 days after infection; 100 μg/mL PA, 20 μg/mL PGG; vs untreated cultures
Protocol: as §2

[4] = tested on: LDLR; assay: LDLR mRNA expression, qRT-PCR in MRC5; assay type: cell-based, human; details: MRC5, 2 days after HRV-2 or HRV-4 infection; 100 μg/mL PA, 20 μg/mL PGG
Protocol: as §2, with “WI).” for “WI). Complementary DNA (cDNA) was synthesized using 1 μg total RNA through a reverse transcription reaction using the SuperScript First-Strand Synthesis Kit (Invitrogen, Carlsbad, CA).”
The expressions of ICAM-1 and LDLR were examined using real-time qRT-PCR and Western blot. […] The concentrations of ICAM-1 in the test samples were determined from OD values using standard curve of each assay.

[5] = tested on: TLR3; assay: TLR3 mRNA expression, qRT-PCR in MRC5; assay type: cell-based, human; details: MRC5, 2 days after infection; 100 μg/mL PA, 20 μg/mL PGG
Protocol: as §2

[6] = tested on: IL-6; assay: IL-6 ELISA in MRC5 supernatants; assay type: cell-based, human; details: for IL-6 concentrations in infected cultures: HRV-2 or HRV-4 infected MRC5 supernatants, 2 days, 100 μg/mL PA, 20 μg/mL PGG
Protocol: The concentrations of IL-6, IL-8, and TNF in cell-free culture supernatants 2 days after treatment were measured using specific ELISA. OptEIA IL-6, IL-8, and TNF ELISA kits (BD Biosciences, San Diego, CA) were used for the assays. The sensitivities of these ELISA assays were 2.2, 0.8, and 2.0 pg/mL, respectively. The concentrations of IL-6, IL-8, and TNF in the test samples were determined from OD values using standard curve of each assay.

[7] = tested on: mICAM-1; assay: Western blot of mICAM-1 in MRC5 cells; assay type: cell-based, human; details: MRC5, 2 days, HRV-2 or HRV-4, 100 μg/mL PA, 20 μg/mL PGG
Protocol: (§3) Cell lysates from infected and noninfected MRC5 cultures 2 days after incubation with or without test compounds were obtained in RIPA buffer and 1% mammalian cell protease inhibitor cocktail according to the manufacturer’s instructions. Working dilutions of primary antibodies were dilulted 500, 2000, and 1000 times for anti-ICAM-1, anti-LDLR, and anti-actin antibodies, respectively. Working dilutions of secondary antibody was 1000, 1000, and 800 for anti-ICAM-1, anti-LDLR, and anti-actin, respectively. Ten micrograms of cell lysates from different treatments were mixed with an equal volume of 5× Laemmli sample buffer, boiled in 10 min, and resolved by electrophoresis in 11% sodium dodecyl sulfate-polyacrylamide gels (SDS-PAGE). […] Differences in protein expressions were quantified using a Molecular Imager Gel Doc XR system (Bio-Rad, Hercules, CA) and normalized to actin expression on the same membrane.
as §1, with “The sensitivities of the assays were 0.3 ng/mL.” left out

[8] = tested on: LDLR; assay: Western blot of LDLR in MRC5 cells; assay type: cell-based, human; details: MRC5, 2 days, regardless of HRV-2 infection, similar with HRV-4, 100 μg/mL PA, 20 μg/mL PGG
Protocol: as §3
as §1, with “The sensitivities of the assays were 0.3 ng/mL.” left out

[9] = tested on: IL-1β; assay: IL-1β mRNA expression, qRT-PCR in MRC5; assay type: cell-based, human; details: MRC5, 2 days after HRV-2 or HRV-4 infection; 100 μg/mL PA, 20 μg/mL PGG
Protocol: as §2

[10] = tested on: HRV-4; assay: Real-time qRT-PCR of HRV-4 RNA replication in MRC5 cells; assay type: cell-based, human rhinovirus; details: MRC5, 2 days after infection; 100 μg/mL PA, 20 μg/mL PGG; vs untreated cultures
Protocol: as §2

Compound	sICAM-1 levels in supernatants vs cultures without treatment [1]	effect on HRV-induced IL-6 mRNA expression [2]	reduction of HRV-2 RNA replication level [3] [fold]	effect on LDLR mRNA expression [4]	TLR3 mRNA expression vs cultures without treatment [5]	IL-6 concentrations in infected cultures [6]	mICAM-1 protein levels vs cultures without treatment [7]	effect on LDLR protein expression [8]	effect on HRV-induced IL-1β mRNA expression [9]	reduction of HRV-4 RNA replication level [10] [fold]	IL-6 concentrations in mock cultures vs mock cultures without treatment ([6]; noninfected MRC5 supernatants)
O=C(OC[C@H]1O[C@@H](OC(=O)c2cc(O)c(O)c(O)c2)[C@H](OC(=O)c2cc(O)c(O)c(O)c2)[C@@H](OC(=O)c2cc(O)c(O)c(O)c2)[C@@H]1OC(=O)c1cc(O)c(O)c(O)c1)c1cc(O)c(O)c(O)c1 [PGG, 1,2,3,4,6-penta-O-galloyl-β-D-glucopyranose]	significantly lower	significantly reduced	14.3	decreased	significantly lower	reduced	similar	sharp decline	disappeared or was significantly reduced	15.1	
COc1ccc(C(C)=O)c(O)c1 [PA, paeonol]	significantly lower	significantly reduced	30.1	decreased	significantly lower	reduced	similar	no effect	disappeared or was significantly reduced	16.3	higher
